# Reference: patent publication US20250059171A1 (Hoffmann-La Roche Inc., priority 2021, published 2025)
# Read-outs that look alike come from different tables or passages of the source.
# Experiments:
# [1] = target: SARS-CoV-2 3CLpro (Severe acute respiratory syndrome coronavirus 2, UniProt P0DTD1); experiment: biochemical
# [2] = target: HCoV-229E 3CLpro (Human coronavirus 229E, UniProt P0C6X1); experiment: HCoV-229E 3CLpro inhibition assay (FRET); assay type: biochemical
# [3] = target: MERS-CoV 3CLpro (Middle East respiratory syndrome-related coronavirus, UniProt K9N7C7); experiment: biochemical
# [4] = target: SARS-CoV 3CLpro (Severe acute respiratory syndrome coronavirus, UniProt P0C6X7); experiment: biochemical
# Sequence of MERS-CoV 3CLpro (K9N7C7 3248-3553): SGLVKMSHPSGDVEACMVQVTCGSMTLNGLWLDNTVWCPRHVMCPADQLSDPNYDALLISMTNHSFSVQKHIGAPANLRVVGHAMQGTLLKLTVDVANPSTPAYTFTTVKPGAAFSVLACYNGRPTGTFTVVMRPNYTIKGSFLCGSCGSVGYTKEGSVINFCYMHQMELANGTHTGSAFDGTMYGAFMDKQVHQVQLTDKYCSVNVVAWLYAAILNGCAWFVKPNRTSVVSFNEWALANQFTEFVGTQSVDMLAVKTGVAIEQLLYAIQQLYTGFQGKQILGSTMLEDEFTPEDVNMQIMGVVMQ
# Sequence of HCoV-229E 3CLpro (P0C6X1 2966-3267): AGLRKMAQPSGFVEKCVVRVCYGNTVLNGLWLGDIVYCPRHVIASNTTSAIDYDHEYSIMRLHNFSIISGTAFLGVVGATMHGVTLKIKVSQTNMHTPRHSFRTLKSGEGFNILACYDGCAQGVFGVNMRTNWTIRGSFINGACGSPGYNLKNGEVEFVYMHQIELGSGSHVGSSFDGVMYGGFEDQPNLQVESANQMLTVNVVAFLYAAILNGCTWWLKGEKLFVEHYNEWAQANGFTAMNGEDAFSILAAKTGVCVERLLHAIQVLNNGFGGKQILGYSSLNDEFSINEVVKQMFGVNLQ
Compound,IC50 [1] [µM],IC50 [2] [µM],IC50 [3] [µM],IC50 [4] [µM],IC50 ([1]; read-out: IC50 in SARS-CoV-2 3CLpro assay) [µM]
"CC[C@H](C)[C@H](NC(=O)[C@@H](F)Cl)C(=O)N1CC(C)(C)C[C@H]1C(=O)NN(C[C@@H]1CCNC1=O)C(=O)[C@@H](F)Cl [Example 187, (2S)-2-chloro-N-[(1S,2S)-1-[(2S)-2-[[[(2S)-2-chloro-2-fluoro-acetyl]-[[(3S)-2-oxopyrrolidin-3-yl]methyl]amino]carbamoyl]-4,4-dimethyl-pyrrolidine-1-carbonyl]-2-methyl-butyl]-2-fluoro-acetamide]",0.024,0.036,0.167,0.043,–
"CC[C@H](C)[C@H](NC(=O)[C@H](F)Cl)C(=O)N1C[C@H]2[C@@H]([C@H]1C(=O)NN(C[C@@H]1CCCNC1=O)C(=O)[C@H](F)Cl)C2(C)C [Example 188, (2R)-2-chloro-N-[(1S,2S)-1-[(1R,2S,5S)-2-[[[(2R)-2-chloro-2-fluoro-acetyl]-[[(3S)-2-oxo-3-piperidyl]methyl]amino]carbamoyl]-6,6-dimethyl-3-azabicyclo[3.1.0]hexane-3-carbonyl]-2-methyl-butyl]-2-fluoro-acetamide]",0.008,0.026,0.068,0.012,–
"CC[C@H](C)[C@H](NC(=O)[C@@H](F)Cl)C(=O)N1C[C@H]2[C@@H]([C@H]1C(=O)NN(C[C@@H]1CCCNC1=O)C(=O)[C@@H](F)Cl)C2(C)C [Example 189, (2S)-2-chloro-N-[(1S,2S)-1-[(1R,2S,5S)-2-[[[(2S)-2-chloro-2-fluoro-acetyl]-[[(3S)-2-oxo-3-piperidyl]methyl]amino]carbamoyl]-6,6-dimethyl-3-azabicyclo[3.1.0]hexane-3-carbonyl]-2-methyl-butyl]-2-fluoro-acetamide]",0.008,0.024,0.05,0.01,–
"CC[C@H](C)[C@H](NC(=O)[C@H](F)Cl)C(=O)N1C[C@@H]2CCC[C@@H]2[C@H]1C(=O)NN(C[C@@H]1CCCNC1=O)C(=O)[C@H](F)Cl [Example 190, (2R)—N-[(1S,2S)-1-[(3S,3aS,6aR)-3-[[[(2R)-2-chloro-2-fluoro-acetyl]-[[(3S)-2-oxo-3-piperidyl]methyl]amino]carbamoyl]-3,3a,4,5,6,6a-hexahydro-1H-cyclopenta[c]pyrrole-2-carbonyl]-2-methyl-butyl]-2-chloro-2-fluoro-acetamide]",0.008,0.029,0.059,0.011,–
"CC[C@H](C)[C@H](NC(=O)[C@@H](F)Cl)C(=O)N1C[C@@H]2CCC[C@@H]2[C@H]1C(=O)NN(C[C@@H]1CCCNC1=O)C(=O)[C@@H](F)Cl [Example 191, (2S)—N-[(1S,2S)-1-[(3S,3aS,6aR)-3-[[[(2S)-2-chloro-2-fluoro-acetyl]-[[(3S)-2-oxo-3-piperidyl]methyl]amino]carbamoyl]-3,3a,4,5,6,6a-hexahydro-1H-cyclopenta[c]pyrrole-2-carbonyl]-2-methyl-butyl]-2-chloro-2-fluoro-acetamide]",–,0.027,0.049,0.011,0.007
"CC[C@H](C)[C@H](NC(=O)[C@H](F)Cl)C(=O)N1C[C@@H]2CCC[C@@H]2[C@H]1C(=O)NN(C[C@H]1CCCNC1=O)C(=O)[C@H](F)Cl [Example 192, (2R)—N-[(1S,2S)-1-[(3S,3aS,6aR)-3-[[[(2R)-2-chloro-2-fluoro-acetyl]-[[(3R)-2-oxo-3-piperidyl]methyl]amino]carbamoyl]-3,3a,4,5,6,6a-hexahydro-1H-cyclopenta[c]pyrrole-2-carbonyl]-2-methyl-butyl]-2-chloro-2-fluoro-acetamide]",0.01,0.052,0.148,0.017,–
"CC[C@H](C)[C@H](NC(=O)[C@@H](F)Cl)C(=O)N1C[C@@H]2CCC[C@@H]2[C@H]1C(=O)NN(C[C@H]1CCCNC1=O)C(=O)[C@@H](F)Cl [Example 193, (2S)—N-[(1S,2S)-1-[(3S,3aS,6aR)-3-[[[(2S)-2-chloro-2-fluoro-acetyl]-[[(3R)-2-oxo-3-piperidyl]methyl]amino]carbamoyl]-3,3a,4,5,6,6a-hexahydro-1H-cyclopenta[c]pyrrole-2-carbonyl]-2-methyl-butyl]-2-chloro-2-fluoro-acetamide]",0.017,0.049,0.11,0.033,–
"CC[C@H](C)[C@H](NC(=O)[C@H](F)Cl)C(=O)N1C[C@H]2[C@@H]([C@H]1C(=O)NN(C[C@H]1CCCNC1=O)C(=O)[C@H](F)Cl)C2(C)C [Example 194, (2R)-2-chloro-N-[(1S,2S)-1-[(1R,2S,5S)-2-[[[(2R)-2-chloro-2-fluoro-acetyl]-[[(3R)-2-oxo-3-piperidyl]methyl]amino]carbamoyl]-6,6-dimethyl-3-azabicyclo[3.1.0]hexane-3-carbonyl]-2-methyl-butyl]-2-fluoro-acetamide]",0.015,0.029,0.112,0.025,–
"CC[C@H](C)[C@H](NC(=O)[C@@H](F)Cl)C(=O)N1C[C@H]2[C@@H]([C@H]1C(=O)NN(C[C@H]1CCCNC1=O)C(=O)[C@@H](F)Cl)C2(C)C [Example 195, (2S)-2-chloro-N-[(1S,2S)-1-[(1R,2S,5S)-2-[[[(2S)-2-chloro-2-fluoro-acetyl]-[[(3R)-2-oxo-3-piperidyl]methyl]amino]carbamoyl]-6,6-dimethyl-3-azabicyclo[3.1.0]hexane-3-carbonyl]-2-methyl-butyl]-2-fluoro-acetamide]",0.028,0.029,0.112,0.051,–
"CC(C)(C)[C@H](NC(=O)[C@@H]1CC1(F)F)C(=O)N1C[C@@H]2CCC[C@@H]2[C@H]1C(=O)NN(C[C@@H]1CCCNC1=O)C(=O)[C@H](F)Cl [Example 196, (1S)—N-[(1S)-1-[(3S,3aS,6aR)-3-[[[(2R)-2-chloro-2-fluoro-acetyl]-[[(3S)-2-oxo-3-piperidyl]methyl]amino]carbamoyl]-3,3a,4,5,6,6a-hexahydro-1H-cyclopenta[c]pyrrole-2-carbonyl]-2,2-dimethyl-propyl]-2,2-difluoro-cyclopropanecarboxamide]",0.011,0.038,0.089,0.014,–
"CC(C)(C)[C@H](NC(=O)[C@@H]1CC1(F)F)C(=O)N1C[C@@H]2CCC[C@@H]2[C@H]1C(=O)NN(C[C@@H]1CCCNC1=O)C(=O)[C@@H](F)Cl [Example 197, (1S)—N-[(1S)-1-[(3S,3aS,6aR)-3-[[[(2S)-2-chloro-2-fluoro-acetyl]-[[(3S)-2-oxo-3-piperidyl]methyl]amino]carbamoyl]-3,3a,4,5,6,6a-hexahydro-1H-cyclopenta[c]pyrrole-2-carbonyl]-2,2-dimethyl-propyl]-2,2-difluoro-cyclopropanecarboxamide]",0.011,0.065,0.094,0.013,–
